In patent US9073926B2, “Heterocyclic compounds containing a pyrrolopyridine or benzimidazole core” (Boehringer Ingelheim International GmbH, priority 2009, dated 2015):

The molecules below were run against Human RSK2 (Homo sapiens (Human), UniProt P51812) (assay: Human RSK2 Assay (Kinase Glo Plus, residual ATP)). Conditions: 0.75 nM His-RSK2, 0.75 μM ATP, 1.0 μM S6 Kinase/RSK Substrate Peptide 1.
Type: biochemical
Procedure: Experimental Method A: Human RSK2 Assay
Compounds are assessed for their ability to inhibit the phosphorylation of a substrate peptide by RSK2.
Human RSK2 protein, purchased from Invitrogen, is used to measure kinase activity utilizing Kinase Glo Plus (Promega) a homogeneous assay technology, which uses a luciferin-luciferase based ATP detection reagent to quantify residual ATP. The assay is performed using 0.75 nM His-RSK2, 0.75 μM ATP and 1.0 μM S6 Kinase/RSK Substrate Peptide 1 (Upstate, catalog #12-124), in assay buffer consisting of 25 mM HEPES, pH 7.5, 10 mM MgCl2, 5 mM MnCl2, 50 mM KCl, 0.2% BSA, 0.01% CHAPS, 100 μM Na3VO4, 0.5 mM DTT, and 1% DMSO. Solutions of test compounds at various concentrations are prepared by 1:3 fold serial dilution of a 1 mM solution of compound in DMSO. The DMSO solutions are further diluted with assay buffer to a final concentration of DMSO of 5%.
The assay is performed in a 384 well, white, non-binding plate (Corning, catalogue #3574). Solutions of test compounds (10 μL) are transferred to a dry assay plate, followed by addition of 20 μL kinase and 20 μL ATP+Substrate Peptide 1 described above. The kinase reaction mixture is incubated for 90 minutes at 28° C. followed by addition of 30 μL of ATP detection reagent for 15 minutes at room temperature. The relative light unit (RLU) signal is measured on a LJL Analyst (Molecular Devices) in luminescence mode using 384 aperture. The RLU signals were converted to percent of control (POC) values using the formula: POC=100*(BCTRL−Signal)/(BCTRL−PCTRL), where Signal is the test well RLU signal, BCTRL is the average of background (negative control), which consists of ATP+peptide and compound buffer, well signals on the plate, and PCTRL is the average of positive control, which consists of kinase, ATP+peptide, and compound buffer, well signals on the plate. For concentration-responsive compounds, POC as a function of test compound concentration are fitted to a 4-parameter logistic equation of the form: Y=A+(B−A)/[1+(x/C)^D], where A, B, C, and D are fitted parameters (parameter B is fixed at zero POC), and x and y are the independent and dependent variables, respectively. The IC50 (50% inhibitory concentration) is determined as the inflection point parameter, C. Experimental Method B: Human RSK2 Trans-Reporter Assay

Human RSK2, sequence (P51812 whole entry): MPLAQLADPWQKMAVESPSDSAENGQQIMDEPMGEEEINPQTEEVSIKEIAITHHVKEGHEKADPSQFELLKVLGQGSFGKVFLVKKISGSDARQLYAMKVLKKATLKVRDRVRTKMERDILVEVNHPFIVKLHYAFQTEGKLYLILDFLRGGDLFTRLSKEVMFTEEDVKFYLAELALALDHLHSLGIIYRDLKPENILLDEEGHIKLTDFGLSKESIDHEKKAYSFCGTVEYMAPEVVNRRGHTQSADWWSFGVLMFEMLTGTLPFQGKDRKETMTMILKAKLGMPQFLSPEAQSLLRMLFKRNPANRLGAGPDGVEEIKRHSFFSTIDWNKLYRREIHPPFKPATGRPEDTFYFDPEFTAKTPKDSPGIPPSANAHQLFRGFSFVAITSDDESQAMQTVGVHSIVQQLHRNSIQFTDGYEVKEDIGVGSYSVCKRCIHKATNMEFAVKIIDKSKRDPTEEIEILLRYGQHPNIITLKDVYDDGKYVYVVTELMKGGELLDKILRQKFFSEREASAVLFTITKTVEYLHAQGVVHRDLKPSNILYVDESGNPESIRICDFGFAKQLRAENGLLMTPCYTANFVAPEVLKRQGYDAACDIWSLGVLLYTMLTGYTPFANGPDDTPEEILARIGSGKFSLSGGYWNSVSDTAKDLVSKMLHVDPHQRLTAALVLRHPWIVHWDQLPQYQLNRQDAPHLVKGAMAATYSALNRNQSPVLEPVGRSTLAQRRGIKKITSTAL

IC50 [nM]	SMILES
4.7	CC(C)n1c(NC(=O)c2ccc3nc4n(c3c2)C(C)(C)CCNC4=O)nc2ccccc21 [Example 18, 5,5-dimethyl-1-oxo-N-[1-(propan-2-yl)-1H-benzimidazol-2-yl]-2,3,4,5-tetrahydro-1H-[1,4]diazepino[1,2-a]benzimidazole-8-carboxamide]
290	O=C(Nc1cc(-c2ccccc2)no1)c1ccc2nc3n(c2c1)CCCNC3=O [Example 19, 1-oxo-N-(3-phenyl-1,2-oxazol-5-yl)-2,3,4,5-tetrahydro-1H-[1,4]diazepino[1,2-a]benzimidazole-8-carboxamide]
1550	Cc1cc(NC(=O)c2ccc3nc4n(c3c2)CCCNC4=O)no1 [Example 20, N-(5-methyl-1,2-oxazol-3-yl)-1-oxo-2,3,4,5-tetrahydro-1H-[1,4]diazepino[1,2-a]benzimidazole-8-carboxamide]
2000	CC(C)(C)c1cc(NC(=O)c2ccc3nc4n(c3c2)CCCNC4=O)no1 [Example 21, N-(5-tert-butyl-1,2-oxazol-3-yl)-1-oxo-2,3,4,5-tetrahydro-1H-[1,4]diazepino[1,2-a]benzimidazole-8-carboxamide]
1700	O=C(Nc1cccc(-c2c[nH]cn2)c1)c1ccc2nc3n(c2c1)CCCNC3=O [Example 22, N-[3-(1H-imidazol-4-yl)phenyl]-1-oxo-2,3,4,5-tetrahydro-1H-[1,4]diazepino[1,2-a]benzimidazole-8-carboxamide]
9.2	O=C(Nc1cnc2ccccc2c1)c1ccc2cc3n(c2n1)CCCNC3=O [Example 23, 6-oxo-N-(quinolin-3-yl)-7,8,9,10-tetrahydro-6H-pyrido[3′,2′:4,5]pyrrolo[1,2-a][1,4]diazepine-2-carboxamide]
56	Cc1nc(-c2cccc(NC(=O)c3ccc4cc5n(c4n3)CCCNC5=O)c2)cs1 [Example 24, N-[3-(2-methyl-1,3-triazol-4-yl)phenyl]-6-oxo-7,8,9,10-tetrahydro-6H-pyrido[3′,2′:4,5]pyrrolo[1,2-a][1,4]diazepine-2-carboxamide]
20	O=C(Nc1cccc(F)c1)c1ccc2cc3n(c2n1)CCCNC3=O [Example 25, N-(3-fluorophenyl)-6-oxo-7,8,9,10-tetrahydro-6H-pyrido[3′,2′:4,5]pyrrolo[1,2-a][1,4]diazepine-2-carboxamide]
2.3	NC(=O)c1ccccc1NC(=O)c1ccc2cc3n(c2n1)CCCNC3=O [Example 26, N-(2-carbamoylphenyl)-6-oxo-7,8,9,10-tetrahydro-6H-pyrido[3′,2′:4,5]pyrrolo[1,2-a][1,4]diazepine-2-carboxamide]
37	O=C(Nc1cccnc1)c1ccc2cc3n(c2n1)CCCNC3=O [Example 27, 6-oxo-N-(pyridin-3-yl)-7,8,9,10-tetrahydro-6H-pyrido[3′,2′:4,5]pyrrolo[1,2-a][1,4]diazepine-2-carboxamide]
90	CCOC(=O)c1nc(NC(=O)c2ccc3cc4n(c3n2)CCCNC4=O)cn1C [Example 28, ethyl 1-methyl-4-{[(6-oxo-7,8,9,10-tetrahydro-6H-pyrido[3′,2′:4,5]pyrrolo[1,2-a][1,4]diazepin-2-yl)carbonyl]amino}-1H-imidazole-2-carboxylate]
2.1	CC(C)n1ncc2cc(NC(=O)c3ccc4cc5n(c4n3)C(C)CCNC5=O)cnc21 (centres unmarked) [Example 29, 10-methyl-6-oxo-N-[1-(propan-2-yl)-1H-pyrazolo[3,4-b]pyridin-5-yl]-7,8,9,10-tetrahydro-6H-pyrido[3′,2′:4,5]pyrrolo[1,2-a][1,4]diazepine-2-carboxamide]
25	CC(C)n1ncc2cc(NC(=O)c3ccc4cc5n(c4n3)CCCNC5=O)cnc21 [Example 30, 6-oxo-N-[1-(propan-2-yl)-1H-pyrazolo[3,4-b]pyridin-5-y]-7,8,9,10-tetrahydro-6H-pyrido[3′,2′:4,5]pyrrolo[1,2-a][1,4]diazepine-2-carboxamide]
105	CC(C)n1ncc2cc(NC(=O)c3ccc4cc5n(c4n3)CC(C)(C)CNC5=O)cnc21 [Example 31, 9,9-dimethyl-6-oxo-N-[1-(propan-2-yl)-1H-pyrazolo[3,4-b]pyridin-5-yl]-7,8,9,10-tetrahydro-6H-pyrido[3′,2′:4,5]pyrrolo[1,2-a][1,4]diazepine-2-carboxamide]
2.3	CC1CCNC(=O)c2cc3ccc(C(=O)Nc4cnc5c(cnn5C5CCOCC5)c4)nc3n21 (centres unmarked) [Example 32, 10-methyl-6-oxo-N-[1-(tetrahydro-2H-pyran-4-yl)-1H-pyrazolo[3,4-b]pyridin-5-yl]-7,8,9,10-tetrahydro-6H-pyrido[3′,2′:4,5]pyrrolo[1,2-a][1,4]diazepine-2-carboxamide]
20	O=C(Nc1cnc2c(cnn2C2CCOCC2)c1)c1ccc2cc3n(c2n1)CCCNC3=O [Example 33, 6-oxo-N-[1-(tetrahydro-2H-pyran-4-yl)-1H-pyrazolo[3,4-b]pyridin-5-yl]-7,8,9,10-tetrahydro-6H-pyrido[3′,2′:4,5]pyrrolo[1,2-a][1,4]diazepine-2-carboxamide]
62	CC1(C)CNC(=O)c2cc3ccc(C(=O)Nc4cnc5c(cnn5C5CCOCC5)c4)nc3n2C1 [Example 34, 9,9-dimethyl-6-oxo-N-[1-(tetrahydro-2H-pyran-4-yl)-1H-pyrazolo[3,4-b]pyridin-5-yl]-7,8,9,10-tetrahydro-6H-pyrido[3′,2′:4,5]pyrrolo[1,2-a][1,4]diazepine-2-carboxamide]
1.6	CC1CCNC(=O)c2cc3ccc(C(=O)Nc4cnc5c(cnn5CC5CCOC5)c4)nc3n21 (centres unmarked) [Example 35, 10-methyl-6-oxo-N-[1-(tetrahydrofuran-3-ylmethyl)-1H-pyrazolo[3,4-b]pyridin-5-yl]-7,8,9,10-tetrahydro-6H-pyrido[3′,2′:4,5]pyrrolo[1,2-a][1,4]diazepine-2-carboxamide]
13	O=C(Nc1cnc2c(cnn2CC2CCOC2)c1)c1ccc2cc3n(c2n1)CCCNC3=O (centres unmarked) [Example 36, 6-oxo-N-[1-(tetrahydrofuran-3-ylmethyl)-1H-pyrazolo[3,4-b]pyridin-5-yl]-7,8,9,10-tetrahydro-6H-pyrido[3′,2′:4,5]pyrrolo[1,2-a][1,4]diazepine-2-carboxamide]
25	CC1(C)CNC(=O)c2cc3ccc(C(=O)Nc4cnc5c(cnn5CC5CCOC5)c4)nc3n2C1 (centres unmarked) [Example 37, 9,9-dimethyl-6-oxo-N-[1-(tetrahydrofuran-3-ylmethyl)-1H-pyrazolo[3,4-b]pyridin-5-yl]-7,8,9,10-tetrahydro-6H-pyrido[3′,2′:4,5]pyrrolo[1,2-a][1,4]diazepine-2-carboxamide]
3.8	Cc1ccnc(NC(=O)c2ccc3cc4n(c3n2)CCCNC4=O)c1 [Example 38, N-(4-methylpyridin-2-yl)-6-oxo-7,8,9,10-tetrahydro-6H-pyrido[3′,2′:4,5]pyrrolo[1,2-a][1,4]diazepine-2-carboxamide]
91	CC1(C)CNC(=O)c2cc3ccc(C(=O)Nc4cnc5ccccc5c4)nc3n2C1 [Example 39, 9,9-dimethyl-6-oxo-N-(quinolin-3-yl)-7,8,9,10-tetrahydro-6H-pyrido[3′,2′:4,5]pyrrolo[1,2-a][1,4]diazepine-2-carboxamide]
0.78	CC1CCNC(=O)c2cc3ccc(C(=O)Nc4cnn(C)c4)nc3n21 (centres unmarked) [Example 40, 10-methyl-N-(1-methyl-1H-pyrazol-4-yl)-6-oxo-7,8,9,10-tetrahydro-6H-pyrido[3′,2′:4,5]pyrrolo[1,2-a][1,4]diazepine-2-carboxamide]
4.8	Cn1cc(NC(=O)c2ccc3cc4n(c3n2)CCCNC4=O)cn1 [Example 41, N-(1-methyl-1H-pyrazol-4-yl)-6-oxo-7,8,9,10-tetrahydro-6H-pyrido[3′,2′:4,5]pyrrolo[1,2-a][1,4]diazepine-2-carboxamide]
72	Cn1cc(NC(=O)c2ccc3cc4n(c3n2)CC(C)(C)CNC4=O)cn1 [Example 42, 9,9-dimethyl-N-(1-methyl-1H-pyrazol-4-yl)-6-oxo-7,8,9,10-tetrahydro-6H-pyrido[3′,2′:4,5]pyrrolo[1,2-a][1,4]diazepine-2-carboxamide]
1.1	CC1CCNC(=O)c2cc3ccc(C(=O)Nc4cnn(C(C)(C)C)c4)nc3n21 (centres unmarked) [Example 43, N-(1-tert-butyl-1H-pyrazol-4-yl)-10-methyl-6-oxo-7,8,9,10-tetrahydro-6H-pyrido[3′,2′:4,5]pyrrolo[1,2-a][1,4]diazepine-2-carboxamide]
